In the CheMixHub viscosity set:

Test: xn = mol fraction of the nth substance listed

C1=CCCCC1 + C1CCCCC1
303.15 K, 101 kPa
Details	viscosity [mPa·s]
x1 = 0.1133	0.772
x1 = 0.2435	0.745
x1 = 0.3293	0.725
x1 = 0.3919	0.72
x1 = 0.4866	0.684
x1 = 0.582	0.678
x1 = 0.7181	0.654
x1 = 0.8663	0.62

C=C(C)C(=O)OCC + C1CCCCC1
viscosity [mPa·s], 101 kPa
Details	298.15 K	308.15 K
x1 = 0.0581	0.837	0.711
x1 = 0.1534	0.768	0.651
x1 = 0.2549	0.711	0.601
x1 = 0.3548	0.668	0.564
x1 = 0.3935	0.655	0.552
x1 = 0.5465	0.619	0.52
x1 = 0.5568	0.618	0.518
x1 = 0.6264	0.61	0.511
x1 = 0.7559	0.606	0.506
x1 = 0.8548	0.614	0.51
x1 = 0.9399	0.628	0.52

CC1CCCCC1 + C1CCCCC1
303.15 K, 101 kPa
Details	viscosity [mPa·s]
x2 = 0.0996	0.6425
x2 = 0.1991	0.6465
x2 = 0.2949	0.6574
x2 = 0.3948	0.6697
x2 = 0.497	0.6849
x2 = 0.6005	0.7041
x2 = 0.699	0.7258
x2 = 0.7978	0.7519
x2 = 0.8955	0.7854

CCCNCCC + C1CCCCC1
viscosity [mPa·s], 101 kPa
Details	x1 = 0.01137	x1 = 0.02125	x1 = 0.03212	x1 = 0.0414	x1 = 0.05092	x1 = 0.06219	x1 = 0.07269	x1 = 0.08114	x1 = 0.09193
303.15 K	0.8095	0.8028	0.7945	0.784	0.7745	0.7633	0.7535	0.7441	0.7334
313.15 K	0.7072	0.6995	0.692	0.6827	0.6721	0.6596	0.649	0.6399	0.6296

CCOC(=O)c1ccccc1 + C1CCCCC1
viscosity [mPa·s], 101 kPa
Details	x1 = 0.0779	x1 = 0.1586	x1 = 0.2454	x1 = 0.3327	x1 = 0.4305	x1 = 0.5312	x1 = 0.6374	x1 = 0.751	x1 = 0.868
303.15 K	0.82	0.832	0.88	0.937	1.025	1.123	1.248	1.387	1.552
308.15 K	0.78	0.801	0.84	0.89	0.96	1.047	1.157	1.295	1.439
313.15 K	0.708	0.727	0.772	0.819	0.885	0.967	1.069	1.198	1.33

Cc1cccc([N+](=O)[O-])c1 + C1CCCCC1
303.15 K, 101.33 kPa
Details	viscosity [mPa·s]
x1 = 0.206	0.93
x1 = 0.38	1.03
x1 = 0.593	1.25
x1 = 0.801	1.54

c1cscn1 + C1CCCCC1
298.15 K, 101 kPa
Details	viscosity [mPa·s]
x1 = 0.1468	0.8439
x1 = 0.2448	0.7891
x1 = 0.4908	0.8119
x1 = 0.7468	0.8753
x1 = 0.8357	0.904
x1 = 0.8841	0.928
x1 = 0.9385	0.958

CC1CCCCC1 + C1CCOC1
303.15 K, 101.33 kPa
Details	viscosity [mPa·s]
x2 = 0.111	0.604
x2 = 0.2072	0.576
x2 = 0.3062	0.548
x2 = 0.404	0.525
x2 = 0.4829	0.507
x2 = 0.504	0.503
x2 = 0.6018	0.487
x2 = 0.7067	0.47
x2 = 0.9006	0.447

CCCCCl + C1CCOC1
viscosity [mPa·s], 101 kPa
Details	298.15 K	313.15 K
x2 = 0.0418	0.4311	0.3702
x2 = 0.052	0.434	–
x2 = 0.0524	0.4231	0.3656
x2 = 0.0982	0.4366	0.3758
x2 = 0.0985	0.439	–
x2 = 0.108	0.425	0.3675
x2 = 0.153	0.443	–
x2 = 0.1781	0.442	0.3808
x2 = 0.2063	0.4287	0.3706
x2 = 0.2076	0.444	0.3826
x2 = 0.29	0.449	–
x2 = 0.2991	0.4324	0.3737
x2 = 0.2996	0.4479	0.3869
x2 = 0.36	0.452	–
x2 = 0.4	0.4522	0.3911
x2 = 0.4088	0.4367	0.3772
x2 = 0.4229	0.455	–
x2 = 0.445	0.456	–
x2 = 0.4998	0.4547	0.3937
x2 = 0.507	0.4408	0.3804
x2 = 0.5395	0.457	–
x2 = 0.5516	0.4553	0.3943
x2 = 0.5945	0.458	–
x2 = 0.5979	0.4565	0.3955
x2 = 0.6074	0.4453	0.3838
x2 = 0.6605	0.459	–
x2 = 0.6991	0.458	0.3977
x2 = 0.7001	0.4495	0.387
x2 = 0.7649	0.46	–
x2 = 0.8021	0.4598	0.3997
x2 = 0.8054	0.4546	0.3907
x2 = 0.8499	0.46	0.3999
x2 = 0.8658	0.461	–
x2 = 0.891	0.4587	0.3939
x2 = 0.8993	0.4607	0.4
x2 = 0.9108	0.46	–
x2 = 0.9519	0.4598	0.4006
x2 = 0.9528	0.4613	0.3961

CCOC(=O)c1ccccc1 + C1CCOC1
viscosity [mPa·s], 101 kPa
Details	x1 = 0.0601	x1 = 0.1259	x1 = 0.198	x1 = 0.2773	x1 = 0.3628	x1 = 0.4611	x1 = 0.5719	x1 = 0.6953	x1 = 0.8372
303.15 K	0.488	0.545	0.617	0.706	0.804	0.937	1.083	1.257	1.474
308.15 K	0.473	0.524	0.595	0.676	0.767	0.885	1.019	1.168	1.36
313.15 K	0.436	0.49	0.553	0.626	0.706	0.809	0.928	1.063	1.229

[Li+].[O-][Cl+3]([O-])([O-])[O-] + C1CCOC1
101 kPa, x1 = 0.07
Details	viscosity [mPa·s]
303.15 K	0.85
308.15 K	0.81
313.15 K	0.78
318.15 K	0.74
323.15 K	0.71

C1=CCCCC1 + C1COCCO1
303.15 K, 101 kPa
Details	viscosity [mPa·s]
x1 = 0.1067	0.932
x1 = 0.2617	0.833
x1 = 0.3551	0.789
x1 = 0.4267	0.754
x1 = 0.4787	0.734
x1 = 0.5637	0.702
x1 = 0.6603	0.668
x1 = 0.7706	0.634
x1 = 0.8678	0.606

CC1CCCCC1 + C1COCCO1
303.15 K, 101.3 kPa
Details	viscosity [mPa·s]
x2 = 0.1001	0.6334
x2 = 0.2013	0.6394
x2 = 0.296	0.653
x2 = 0.3948	0.6802
x2 = 0.5046	0.7196
x2 = 0.5993	0.7612
x2 = 0.7003	0.8213
x2 = 0.7956	0.8868
x2 = 0.896	0.9775

CCOC(=O)c1ccccc1 + C1COCCO1
viscosity [mPa·s], 101 kPa
Details	x1 = 0.0639	x1 = 0.1304	x1 = 0.1626	x1 = 0.2849	x1 = 0.3735	x1 = 0.4716	x1 = 0.5805	x1 = 0.7048	x1 = 0.8402
303.15 K	1.118	1.155	1.172	1.246	1.296	1.369	1.445	1.535	1.633
308.15 K	1.026	1.062	1.078	1.146	1.195	1.259	1.33	1.416	1.502
313.15 K	0.972	1.001	1.013	1.069	1.108	1.16	1.214	1.279	1.348

[Li+].[O-][Cl+3]([O-])([O-])[O-] + C1COCO1
101 kPa, x1 = 0.07
Details	viscosity [mPa·s]
303.15 K	1
308.15 K	0.93
313.15 K	0.89
318.15 K	0.85
323.15 K	0.81

Cc1cccc([N+](=O)[O-])c1 + CC1CCCCC1
303.15 K, 101.33 kPa
Details	viscosity [mPa·s]
x1 = 0.202	0.77
x1 = 0.4	0.89
x1 = 0.6	1.09
x1 = 0.799	1.43

CCOC(=O)c1ccccc1 + CC#N
viscosity [mPa·s], 101.33 kPa
Details	x1 = 0.129	x1 = 0.25	x1 = 0.362	x1 = 0.469	x1 = 0.571	x1 = 0.657	x1 = 0.756	x1 = 0.832	x1 = 0.914
293.15 K	0.465	0.496	0.554	0.627	0.714	0.843	1.056	1.362	1.764
303.15 K	0.416	0.444	0.495	0.551	0.621	0.721	0.897	1.12	1.418
313.15 K	0.378	0.403	0.443	0.491	0.549	0.631	0.764	0.939	1.161
323.15 K	0.34	0.362	0.397	0.436	0.485	0.55	0.659	0.799	0.972

[Li+].[O-][Cl+3]([O-])([O-])[O-] + CC#N
viscosity [mPa·s], 101 kPa
Details	x1 = 0.0128	x1 = 0.0255	x1 = 0.0301	x1 = 0.536
296.15 K	0.444	–	–	0.66
297.15 K	–	0.53	–	–
313.15 K	0.399	0.473	0.958	0.628
